Laboratory results reported in PubChem BioAssay AID463203 (Broad Institute, 2010).
Activity calls are given as the source filed them.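 The calls were made as follows: active = more than half of replicate measurements showing over 20% loss of kinase signal relative to plate controls; inconclusive = some but at most half of replicates over 20% loss; inactive = no replicate over 20% signal loss.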

Target: Glycogen synthase kinase-3 alpha (Homo sapiens) (UniProt P49840)
Assay: concentration-response blocking of human GSK3A – biochemical, luminescence, cell-free homogeneous, retest, dose response (AID 463203)
Conditions: GSK-3 alpha enzyme, ADP-Glo luminescence, 60 min

Chain of Glycogen synthase kinase-3 alpha (Homo sapiens) (P49840 whole entry, looked up): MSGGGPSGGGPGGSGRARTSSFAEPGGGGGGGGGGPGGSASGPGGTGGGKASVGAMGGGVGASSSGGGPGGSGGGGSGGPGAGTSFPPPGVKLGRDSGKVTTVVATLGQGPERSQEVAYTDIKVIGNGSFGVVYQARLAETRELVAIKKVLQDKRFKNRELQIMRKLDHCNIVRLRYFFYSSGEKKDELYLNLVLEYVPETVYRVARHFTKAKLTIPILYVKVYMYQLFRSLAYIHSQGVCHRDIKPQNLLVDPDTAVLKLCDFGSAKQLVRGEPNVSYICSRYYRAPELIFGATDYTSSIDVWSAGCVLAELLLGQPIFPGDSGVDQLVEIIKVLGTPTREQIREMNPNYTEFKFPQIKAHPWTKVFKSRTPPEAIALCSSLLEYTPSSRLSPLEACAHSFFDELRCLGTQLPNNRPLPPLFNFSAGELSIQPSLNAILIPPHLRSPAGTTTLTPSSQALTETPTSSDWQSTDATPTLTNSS

| Structure (SMILES) | AC50 |
| --- | --- |
| O=C(O)Cn1c(=O)c2c3c(sc2n(Cc2ccc(F)cc2)c1=O)CCCC3 | > 30 µM (inactive) |
| Cc1ccc(CNc2ccc([N+](=O)[O-])cc2C(N)=O)cc1 | > 30 µM (inactive) |
| O=C(CSc1ccc2nnc(-c3ccccc3)n2n1)N1CCCc2ccccc21 | > 30 µM (inactive) |
| CSc1ncccc1-c1nc2ccccc2[nH]1 | > 30 µM (inactive) |
| CNc1cc(N2CCCC2)ccc1[N+](=O)[O-] | > 30 µM (inactive) |
| CCCCc1ccc(NC(=O)N[C@H](C(=O)O)C(C)CC)cc1 (stereo partly drawn) | > 30 µM (inactive) |
| COc1ccc(-c2ncncc2-c2ccccc2)c(O)c1 | 13.2 µM |
| O=C(NCc1ccc2c(c1)OCO2)c1cc(COc2c(F)cccc2F)on1 | > 30 µM (inactive) |
| COc1ccc(-n2c(O)c(C=NCc3ccc4c(c3)OCO4)c(=O)[nH]c2=O)cc1 | > 30 µM (inactive) |
| COc1ccc(NC(=O)/C(C#N)=C\C=C\c2ccco2)cc1 | > 30 µM (inactive) |
| Cc1ccc(-c2c3c(nc4sc(C(N)=O)c(N)c24)CCC3)cc1 | 5.39 µM |
| O=C(OC1CO[C@H]2O[C@@H]1[C@H](OC(=O)c1ccccc1)[C@H]2OC(=O)c1ccccc1)c1ccccc1 (stereo partly drawn) | > 30 µM (inactive) |
| CC(C)c1c(C(=O)N/N=C/c2cccnc2)nnn1-c1nonc1N | > 30 µM (inactive) |
| COc1ccc2[nH]c(=O)c3c(c2c1)OC(C)(C)C=C3 | 10.4 µM |
| O=C(CN(Cc1ccc(F)cc1)C(=O)CCC(=O)Nc1nccs1)NCc1ccc(F)cc1 | 9.59 µM |
| C=CCc1cc(/C=N/n2cnnc2)cc(OCC)c1O | > 30 µM (inactive) |
| CCOC(=O)c1ccc(N2C=C(C(=O)OC)C(c3ccc(OC)c(O)c3)C(C(=O)OC)=C2)cc1 | > 30 µM (inactive) |
| O=C(O)CCSc1nnc(-c2ccncc2)n1-c1ccccc1 | > 30 µM (inactive) |
| CC(=O)Nc1n[nH]c(-c2ccc(C)cc2)c1C | > 30 µM (inactive) |

| Structure (SMILES) | AC50 |
| --- | --- |
| O=c1cc(-c2ccccc2)[nH]n1-c1ccc([N+](=O)[O-])cc1 | > 30 µM (inactive) |
| CCC(=O)NCCNc1ccc([N+](=O)[O-])cn1 | > 30 µM (inactive) |
| O=c1[nH]cccc1-c1nc2ccccc2[nH]1 | 4.92 µM |
| COc1ccc2nc(SCC(=O)Nc3nccs3)[nH]c2c1 | 7.82 µM |
| O=C(Nc1c(C(=O)C2CC2)oc2ccccc12)c1ccc(Cl)cc1 | > 30 µM (inactive) |
| COc1ccc(CCNC(=O)CSc2nc3[nH]ncc3c(=O)n2-c2ccccc2OC)cc1OC | 1.89 µM |
| CSc1cccc(NC(=O)CN(C)S(=O)(=O)c2cnc[nH]2)c1 | > 30 µM (inactive) |
| Cn1c(=O)c2[nH]c(NCC3CCCO3)nc2n(-c2ccccc2)c1=O (stereo not drawn) | 11 µM |
| CSCCC1NC(=S)N(Cc2ccccc2)C1=O (stereo not drawn) | > 30 µM (inactive) |
| Nc1nonc1-n1nnc(C(=O)N/N=C\c2cccc(Cl)c2)c1CN1CCOCC1 | 15.2 µM |
| C/C(=N\NC(=O)c1nnn(-c2nonc2N)c1-c1cccs1)c1cccc(O)c1 | 1.42 µM |
| Oc1[nH]c2ccccc2c1N=Nc1ccccc1 | 13.9 µM |
| Cc1ccc(NC(=O)CSCc2nc3c(nnn3Cc3ccc(F)cc3)c(=O)[nH]2)c(C)c1 | > 30 µM (inactive) |
| O=C(CNCC1CCCO1)Nc1ccc([N+](=O)[O-])cc1C(=O)Nc1ccccc1F (stereo not drawn) | > 30 µM (inactive) |
| O=C1CCCC2=C1C(c1ccc(O)cc1)c1c(ccc3ccccc13)N2 (stereo not drawn) | > 30 µM (inactive) |
| CC(C)(C)N=Cc1c(O)ccc2oc3c(c12)CCCC3 | > 30 µM (inactive) |
| O=C(CSc1nc2ccccc2o1)Nc1nc2ccc(Br)cc2s1 | > 30 µM (inactive) |
| CCOC(=O)c1cnn(Cc2ccccc2Cl)c1N | > 30 µM (inactive) |
| CCCCC(NS(=O)(=O)c1ccc(OC)cc1)C(=O)O (stereo not drawn) | > 30 µM (inactive) |
